In PMC11045757, “Group 3 medulloblastoma transcriptional networks collapse under domain specific EP300/CBP inhibition” (Nature Communications, 2024):

What was measured:
BRD2(2) = molecular target: T1, BRD2(2) (Homo sapiens, UniProt P25440); experiment: BromoScan profiling (DiscoverX); assay type: binding; settings: read-out: Percent Control BRD2(2)
T1 construct: BRD2(2); purchased Eurofins DiscoverX (BROMOscan)

ATAD2B = molecular target: T2, ATAD2B (Homo sapiens, UniProt Q9ULI0); experiment: BromoScan profiling (DiscoverX); assay type: binding; settings: read-out: Percent Control ATAD2B
T2 construct: purchased Eurofins DiscoverX (BROMOscan)

[1] = Brain tissue concentration after i.p. dosing (LC-MS/MS); assay type: in vivo, female CD-1 nude mice; settings: below lower limit of quantitation
Procedure: One of the most aggressive MB tumor subtypes are Group 3 medulloblastoma (G3MB), which are commonly characterized by overexpression of the driver oncogene c-MYC due to gene amplification in 17% of cases[40],[42],[43]. These tumors are associated with poor patient survival. […] We sacrificed treated mice at three timepoints after dosing (8, 16, 24 h) and perfused the murine vasculature with PBS to eliminate contaminating blood from the brain.
All animal studies were approved by the St. Jude Children’s Research Hospital Animal Care and Use Committee and performed in accordance with best practices outlined by the NIH Office of Laboratory Animal Welfare. […]
Brain samples were homogenized using a FastPrep-24 system (MP Biomedicals, Santa Ana, CA), and stored at -80 °C until analysis by qualified liquid chromatography–tandem mass spectrometry (LC-MS/MS) assay. […] Plasma and brain homogenate samples were precipitated, and extracted supernatant was analyzed on an AB Sciex ExionLC high performance liquid chromatography system via an AB Sciex ExionLC autosampler. For quantitation, a linear model (1/X^2 weighting) fit the plasma and brian homogenate calibrators across the 1 to 500 ng/mL range, with a correlation coefficient (R) of ≥0.9967. […] No matrix effects, ion enhancement or suppression, were detected in blank CD-1 mouse plasma or NSG brain homogenates.

[2] = Plasma pharmacokinetics after i.p. dosing; assay type: in vivo, female CD-1 nude mice; settings: 16 and 24 hrs, below lower limit of quantitation
Procedure: All animal studies were approved by the St. Jude Children’s Research Hospital Animal Care and Use Committee and performed in accordance with best practices outlined by the NIH Office of Laboratory Animal Welfare. […] Three survival blood samples were obtained from each mouse via retro-orbital plexus using 70 μL glass microhematocrit capillary tubes (Fisher), and a fourth final sample by cardiac puncture immediately following the third survival sample, all using K-EDTA as anticoagulant. Samples were obtained at various times up to 24 h post-dose, immediately processed to plasma, and stored at −80 °C until analysis. […]
Brain samples were homogenized using a FastPrep-24 system (MP Biomedicals, Santa Ana, CA), and stored at -80 °C until analysis by qualified liquid chromatography–tandem mass spectrometry (LC-MS/MS) assay. […] Plasma and brain homogenate samples were precipitated, and extracted supernatant was analyzed on an AB Sciex ExionLC high performance liquid chromatography system via an AB Sciex ExionLC autosampler. For quantitation, a linear model (1/X^2 weighting) fit the plasma and brian homogenate calibrators across the 1 to 500 ng/mL range, with a correlation coefficient (R) of ≥0.9967. The lower limit of quantitation (LLOQ), defined as a peak area signal-to-noise ratio of 5 or greater verses a matrix blank with internal standard, was 1 ng/mL in plasma and 6 ng/mL in brain. […]

BRD4-BD1 (BRD4-1) = molecular target: T3, BRD4-BD1 (BRD4-1) (Homo sapiens, UniProt O60885); experiment: Isothermal titration calorimetry (ITC); assay type: binding; settings: single ITC experiment, data fit ± SEM
T3 construct: BRD4-BD1 (residues 44-168); 6xHis (cleaved yes); host or cells: E. coli BL21 (DE3) RIL
Procedure: At OD600 of 0.6, the culture was cooled down to 18 °C and induced with 0.1 mM IPTG. After 18 h growth, the culture was harvested by centrifugation at 6000 × g for 25 min and stored at -80 °C. Harvested cell pellets were re-suspended in 50 mM Na/K phosphate buffer (pH 7.4) containing 100 mM NaCl, 40 mM imidazole, 0.01% w/v lysozyme and 0.01% v/v Triton X-100 at 4 °C for 1 h, subjected to sonication and the lysate was clarified by centrifugation (30,000 × g for 45 min at 4 °C). Proteins were purified by FPLC at 4 °C using columns and chromatography materials from GE Healthcare. […] Proteins were purified to homogeneity by size exclusion chromatography using Superdex 75 equilibrated with elution buffer (50 mM HEPES pH 7.5, 100 mM NaCl, 2 mM DTT). All BRDs eluted as monomeric protein and were of crystallization grade quality (>95% purity as judged by SDS-PAGE). Pool fractions were combined, concentrated to 10–12 mg/ml, and aliquots were flash-frozen in liquid N2 and stored at −80 °C.
All experiments were conducted using an PEAQ-ITC calorimeter (Malvern Scientific). BRDs were buffer exchanged using PD10 columns (GE life sciences) into 50 mM HEPES pH7.5 and 100 mM NaCl (ITC buffer) before the experiment and concentrated to ∼10 mg/mL. Experiments were carried out in ITC buffer while stirring at 750 rpm through reverse titration. The microsyringe (40 μL load volume) was loaded with the protein sample (250–600 μM protein in ITC buffer) and inserted into the calorimetric cell (0.2 mL cell volume) consisting of compound (20–60 μM in ITC buffer). All titrations were conducted using an initial control injection of 0.2 μL followed by 13 identical injections (~3 μL per injection) with a duration of 2 s (per injection) and a spacing of 150 s between injections. The ratio of protein/compound was optimized to ensure complete saturation of the titrant before the final injection to ensure proper baseline determination. Data were corrected for dilution and analyzed using the MicroCal Origin software to determine the enthalpies of binding (ΔH) and binding constants as described. Thermodynamic parameters were calculated using the basic equation of thermodynamics (ΔG = ΔH − TΔS = −RTlnKB) where ΔG, ΔH and ΔS are the changes in free energy, enthalpy and entropy of binding, respectively. A single binding site model was used for all ligand-protein interactions.

WDR9(2) = molecular target: T4, WDR9(2) (Homo sapiens, UniProt Q9NSI6); experiment: BromoScan profiling (DiscoverX); assay type: binding; settings: read-out: Percent Control WDR9(2)
T4 construct: WDR9(2); purchased Eurofins DiscoverX (BROMOscan)

BRD1 = molecular target: T5, BRD1 (Homo sapiens, UniProt O95696); experiment: BromoScan profiling (DiscoverX); assay type: binding; settings: read-out: Percent Control BRD1
T5 construct: purchased Eurofins DiscoverX (BROMOscan)

TRIM33(PHD,Bromo.) = experiment: BromoScan profiling (DiscoverX); assay type: binding, human; settings: 1 µM
BRDT(1) = molecular target: T6, BRDT(1) (Homo sapiens, UniProt Q58F21); experiment: BromoScan profiling (DiscoverX); assay type: binding; settings: read-out: Percent Control BRDT(1)
T6 construct: BRDT(1); purchased Eurofins DiscoverX (BROMOscan)

T4 sequence (Q9NSI6 1310-1430 limits assumed): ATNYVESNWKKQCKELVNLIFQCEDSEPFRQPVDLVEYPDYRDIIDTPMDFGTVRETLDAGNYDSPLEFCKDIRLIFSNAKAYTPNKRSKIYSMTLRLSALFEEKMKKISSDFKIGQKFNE
T2 sequence (Q9ULI0 whole entry): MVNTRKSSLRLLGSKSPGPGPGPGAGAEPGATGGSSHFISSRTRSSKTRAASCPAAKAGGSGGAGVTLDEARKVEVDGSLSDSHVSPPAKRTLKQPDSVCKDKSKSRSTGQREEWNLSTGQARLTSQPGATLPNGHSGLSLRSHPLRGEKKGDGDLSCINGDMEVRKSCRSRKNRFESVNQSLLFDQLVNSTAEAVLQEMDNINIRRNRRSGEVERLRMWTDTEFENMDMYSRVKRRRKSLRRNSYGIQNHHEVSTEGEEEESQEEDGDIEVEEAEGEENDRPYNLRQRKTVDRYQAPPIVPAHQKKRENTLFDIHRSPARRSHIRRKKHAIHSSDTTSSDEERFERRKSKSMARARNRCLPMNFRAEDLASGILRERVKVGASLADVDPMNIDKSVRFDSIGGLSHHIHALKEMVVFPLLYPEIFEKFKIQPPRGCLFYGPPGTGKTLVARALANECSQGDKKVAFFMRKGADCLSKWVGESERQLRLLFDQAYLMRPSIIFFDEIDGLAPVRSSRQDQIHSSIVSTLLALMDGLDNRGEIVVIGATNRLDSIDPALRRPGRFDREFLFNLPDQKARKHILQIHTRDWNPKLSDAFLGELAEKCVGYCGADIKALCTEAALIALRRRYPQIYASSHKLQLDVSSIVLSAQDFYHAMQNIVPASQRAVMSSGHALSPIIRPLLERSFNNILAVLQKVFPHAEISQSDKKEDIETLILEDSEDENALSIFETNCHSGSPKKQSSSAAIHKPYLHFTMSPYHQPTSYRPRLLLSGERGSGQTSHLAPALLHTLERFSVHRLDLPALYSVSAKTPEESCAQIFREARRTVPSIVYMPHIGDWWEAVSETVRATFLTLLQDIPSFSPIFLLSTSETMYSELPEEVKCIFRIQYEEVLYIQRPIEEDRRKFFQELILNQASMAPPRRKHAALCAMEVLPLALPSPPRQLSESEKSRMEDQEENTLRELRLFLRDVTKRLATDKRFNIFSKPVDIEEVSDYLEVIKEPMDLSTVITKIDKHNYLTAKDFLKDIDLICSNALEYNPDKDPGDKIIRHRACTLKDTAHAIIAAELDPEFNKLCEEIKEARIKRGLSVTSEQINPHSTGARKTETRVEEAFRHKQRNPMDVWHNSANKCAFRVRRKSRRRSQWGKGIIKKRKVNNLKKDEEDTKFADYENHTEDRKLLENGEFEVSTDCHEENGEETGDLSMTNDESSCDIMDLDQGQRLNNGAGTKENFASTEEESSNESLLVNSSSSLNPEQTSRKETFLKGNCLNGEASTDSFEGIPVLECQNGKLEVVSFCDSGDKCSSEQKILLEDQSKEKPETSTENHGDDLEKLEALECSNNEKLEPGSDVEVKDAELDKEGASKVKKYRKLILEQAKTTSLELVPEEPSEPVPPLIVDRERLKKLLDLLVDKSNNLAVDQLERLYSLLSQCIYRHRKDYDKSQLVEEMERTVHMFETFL
T5 sequence (O95696 whole entry): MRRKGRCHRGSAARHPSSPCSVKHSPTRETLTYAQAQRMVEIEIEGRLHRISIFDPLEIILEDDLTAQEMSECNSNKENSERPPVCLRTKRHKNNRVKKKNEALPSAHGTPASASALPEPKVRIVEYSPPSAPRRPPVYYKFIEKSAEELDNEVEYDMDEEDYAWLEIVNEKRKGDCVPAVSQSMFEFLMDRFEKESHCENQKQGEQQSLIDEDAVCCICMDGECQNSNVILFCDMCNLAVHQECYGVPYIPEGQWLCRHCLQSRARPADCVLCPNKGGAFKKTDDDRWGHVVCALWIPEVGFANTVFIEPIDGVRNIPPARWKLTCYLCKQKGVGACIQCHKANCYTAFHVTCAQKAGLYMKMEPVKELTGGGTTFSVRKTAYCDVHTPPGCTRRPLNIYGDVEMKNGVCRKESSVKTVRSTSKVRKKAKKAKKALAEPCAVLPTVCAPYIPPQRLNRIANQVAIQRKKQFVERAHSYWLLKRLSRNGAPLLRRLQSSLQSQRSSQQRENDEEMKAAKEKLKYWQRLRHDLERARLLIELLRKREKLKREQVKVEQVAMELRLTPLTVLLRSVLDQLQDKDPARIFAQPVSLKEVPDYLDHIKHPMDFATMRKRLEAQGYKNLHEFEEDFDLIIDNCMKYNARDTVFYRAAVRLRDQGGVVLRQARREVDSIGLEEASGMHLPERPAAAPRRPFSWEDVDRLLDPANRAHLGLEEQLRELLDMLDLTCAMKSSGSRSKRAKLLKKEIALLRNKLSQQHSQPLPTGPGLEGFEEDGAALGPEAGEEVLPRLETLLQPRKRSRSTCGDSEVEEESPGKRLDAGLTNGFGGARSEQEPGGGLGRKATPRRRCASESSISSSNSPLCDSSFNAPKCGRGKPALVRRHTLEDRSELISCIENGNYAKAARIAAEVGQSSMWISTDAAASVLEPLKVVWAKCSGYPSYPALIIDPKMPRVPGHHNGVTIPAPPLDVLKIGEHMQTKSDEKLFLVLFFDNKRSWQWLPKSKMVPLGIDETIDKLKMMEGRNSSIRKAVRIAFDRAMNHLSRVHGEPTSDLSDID
T1 sequence (P25440 348-455 limits assumed): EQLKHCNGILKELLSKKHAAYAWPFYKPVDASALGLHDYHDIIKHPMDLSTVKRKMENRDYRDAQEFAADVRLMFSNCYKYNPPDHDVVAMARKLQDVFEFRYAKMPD

remaining binding at 1 µM (BRD2(2)): 57% | remaining binding at 1 µM (ATAD2B): 79% | brain tissue concentration ([1]; 25 or 50 mg/kg i.p., 8, 16, 24 h): < 6 ng/mL | brain concentration ([1]; i.p., 16 and 24 hrs): < 6 ng/mL | plasma concentration [2]: < 1 ng/mL | Kd (BRD4-BD1 (BRD4-1)): 403 ± 137 nM | remaining binding at 1 µM (WDR9(2)): 14% | remaining binding at 1 µM (BRD1): 88% | remaining binding at 1 µM (BRDT(1)): 14%
Compound: CO[C@H]1CC[C@H](n2c([C@@H]3CCCC(=O)N3c3ccc(F)c(F)c3)nc3cc(-c4c(C)noc4C)ccc32)CC1 [CCS1477]
Percent Control TRIM33(PHD,Bromo.) (TRIM33(PHD,Bromo.)): 90
